The target of data set [1] is T1, rat mGlu2 receptor (Rattus norvegicus, UniProt P31421).
T1 construct: expressed in transfected cells; membranes prepared
As to the kind of experiment: [3H]-LY354740 binding on mGlu2 transfected CHO cell membranes. Particulars: inhibition of 10 nM [3H]-LY354740 binding, membranes of CHO cells transfected with rat mGlu2, room temperature, 1 hour. The source says:
[^3H]-LY354740 Binding on mGlu2 Transfected CHO Cell Membranes. Transfection and Cell Culture
cDNA encoding the rat mGlu2 receptor protein in pBluescript II was subcloned into the eukaryotic expression vector pcDNA I-amp from Invitrogen Ltd (Paisley, UK). This vector construct (pcD1mGR2) was co-transfected with a psvNeo plasmid encoding the gene for neomycin resistance, into CHO cells by a modified calcium phosphate method described by Chen & Okayama (1988). The cells were maintained in Dulbecco's Modified Eagle medium with reduced L-glutamine (1 mM final concentration), 36 mg/L L-Proline and 10% dialysed foetal calf serum from Gibco-Invitrogen; the medium was supplemented with 500 microM α-methyl-4-carboxyphenylglycine (MCPG). Selection was made in the presence of G-418 (300 ug/ml final concentration). Clones were identified by reverse transcription of 5 μg total RNA, followed by PCR using mGlu2 receptor specific primers 5′-[…]-3′ and 5′-[…]-3′ in 60 mM Tris HCl (pH 10), 15 mM (NH4)2SO4, 2 mM MgCl2, 25 units/ml Taq Polymerase with 30 cycles annealing at 60° C. for 1 min., extention at 72° C. for 30 s, and 1 min. 95° C. denaturation.
Cells, cultured as above, were harvested and washed three times with cold PBS and frozen at −80° C. The pellet was resuspended in cold 20 mM HEPES-NaOH buffer containing 10 mM EDTA (pH 7.4), and homogenised with a polytron (Kinematica, A G, Littau, Switzerland) for 10 s at 10 000 rpm. After centrifugation for 30 min. at 4° C., the pellet was washed once with cold 20 mM HEPES-NaOH buffer containing 0.1 mM EDTA, (pH 7.4). After a second centrifugation for 30 min. at 4° C. the pellet was resuspended in cold 20 mM HEPES-NaOH buffer containing 0.1 mM EDTA, (pH 7.4). Protein content was measured using the Micro BCA method from Pierce-Perbio (Rockford, Ill., USA) using bovine serum albumin as standard.
After thawing, the membranes were resuspended in cold 50 mM Tris-HCl buffer containing 2 mM MgCl2 (pH 7.4) (binding buffer). The final concentration of the membranes in the assays was 25 μg protein/ml. Inhibition experiments were performed with membranes incubated with 10 nM [^3H]-LY354740 at room temperature, for 1 hour, in presence of various concentrations of the compound to be tested. Following the incubations, membranes were filtered onto Whatmann GF/B glass fiber filters or onto GF/B Unifilter plates and washed 5 times with cold binding buffer. Non specific binding was measured in the presence of 10 μM (2S,2′R,3′R)-2-(2′3′-Dicarboxycyclopropyl)glycine (DCG IV from Tocris, Ellisville, Mo. USA). After transfer of the filters into plastic vials containing 10 ml of Ultima-gold scintillation fluid from Perkin-Elmer (Boston, Mass., USA), the radioactivity was measured by liquid scintillation in a Tri-Carb 2500 TR counter (Packard, Zürich, Switzerland). For 96-Unifilter plates the radioactivity was measured after addition of Microscint 40 scintillation fluid (Perkin Elmer, Boston Mass.) using a TopCount NXT (Packard)
The inhibition curves were fitted with a four parameter logistic equation giving IC50 values, and Hill coefficients.

These results are taken from US8183262B2, “Pyridine derivatives as mGluR2 antagonists” (Hoffmann-La Roche Inc., priority 2007, dated 2012).

T1 sequence (P31421 19-872): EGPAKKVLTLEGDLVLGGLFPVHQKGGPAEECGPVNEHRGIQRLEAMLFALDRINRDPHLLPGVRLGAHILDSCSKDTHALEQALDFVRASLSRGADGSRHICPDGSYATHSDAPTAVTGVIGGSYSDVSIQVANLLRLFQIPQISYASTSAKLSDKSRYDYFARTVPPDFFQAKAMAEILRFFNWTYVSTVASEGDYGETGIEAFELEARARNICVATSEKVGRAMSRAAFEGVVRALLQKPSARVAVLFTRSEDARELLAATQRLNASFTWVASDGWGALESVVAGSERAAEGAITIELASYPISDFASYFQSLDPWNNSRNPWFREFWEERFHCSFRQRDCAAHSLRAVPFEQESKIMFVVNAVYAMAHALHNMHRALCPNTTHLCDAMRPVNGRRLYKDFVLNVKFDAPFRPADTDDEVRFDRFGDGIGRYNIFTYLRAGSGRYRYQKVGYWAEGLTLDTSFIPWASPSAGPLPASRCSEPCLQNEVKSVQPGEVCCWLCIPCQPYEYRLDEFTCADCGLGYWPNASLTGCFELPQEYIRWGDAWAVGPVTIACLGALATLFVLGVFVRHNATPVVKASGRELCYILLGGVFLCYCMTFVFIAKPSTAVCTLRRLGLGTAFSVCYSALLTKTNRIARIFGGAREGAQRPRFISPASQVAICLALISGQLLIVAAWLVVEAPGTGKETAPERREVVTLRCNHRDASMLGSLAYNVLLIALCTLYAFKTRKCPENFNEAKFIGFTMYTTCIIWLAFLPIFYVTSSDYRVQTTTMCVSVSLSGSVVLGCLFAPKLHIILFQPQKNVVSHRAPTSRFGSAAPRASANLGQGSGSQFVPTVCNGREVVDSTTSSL

`FC(F)(F)c1cc(-c2ccc(Cl)cc2)nc(-n2ccnc2)n1` [Example 1, 4-(4-Chloro-phenyl)-2-imidazol-1-yl-6-trifluoromethyl-pyrimidine]: the melting point – broadly, the temperature of the solid-liquid transition – was determined as 175 °C. In data set [1], the affinity, expressed as Ki, was 74 nM.
For the compound `NS(=O)(=O)c1cccc(-c2nc(-c3nc(-c4ccc(Cl)cc4)cc(C(F)(F)F)n3)no2)c1` [Example 2, 3-{3-[4-(4-Chloro-phenyl)-6-trifluoromethyl-pyrimidin-2-yl]-[1,2,4]oxadiazol-5-yl}-benzenesulfonamide], the melting point is 273 °C. The Ki (usually a measure of affinity in units of concentration, obtained from inhibition or displacement) in data set [1] was determined as 28 nM.
Compound `FC(F)(F)c1ccc(-c2cc(C(F)(F)F)nc(-n3ccnc3)n2)cc1` [Example 3, 2-Imidazol-1-yl-4-trifluoromethyl-6-(4-trifluoromethyl-phenyl)-pyrimidine] returned a melting point of 162 °C. For the same compound, the Ki in data set [1] came to 72 nM.
The matching figures for `FC(F)(F)c1ccc(-c2cc(C(F)(F)F)nc(-n3cnc(-c4cccnc4)c3)n2)cc1` [Example 5, 2-(4-Pyridin-3-yl-imidazol-1-yl)-4-trifluoromethyl-6-(4-trifluoromethyl-phenyl)-pyrimidine]: 200.5 °C and 47 nM.
Turning to `Nc1cc(-c2noc(-c3nc(-c4ccc(Cl)cc4)cc(C(F)(F)F)n3)n2)ccn1` [Example 8, 4-{5-[4-(4-Chloro-phenyl)-6-trifluoromethyl-pyrimidin-2-yl]-[1,2,4]oxadiazol-3-yl}-pyridin-2-ylamine], the melting point came to 223.5 °C. In data set [1], this compound came in with a Ki of 100 nM.
In turn, `NS(=O)(=O)c1cccc(-c2nc(-c3nc(-c4ccc(C(F)(F)F)cc4)cc(C(F)(F)F)n3)no2)c1` [Example 10, 3-{3-[4-Trifluoromethyl-6-(4-trifluoromethyl-phenyl)-pyrimidin-2-yl]-[1,2,4]oxadiazol-5-yl}-benzenesulfonamide] had a melting point of 205 °C. The same compound had a Ki in data set [1] of 25 nM.
The compound `Nc1ccc(-c2noc(-c3nc(-c4ccc(C(F)(F)F)cc4)cc(C(F)(F)F)n3)n2)cn1` [Example 11, 5-{5-[4-Trifluoromethyl-6-(4-trifluoromethyl-phenyl)-pyrimidin-2-yl]-[1,2,4]oxadiazol-3-yl}-pyridin-2-ylamine] registered a melting point of 218.5 °C. The compound also showed a Ki in data set [1] of 21.6 nM.
The corresponding values for `Nc1ccc(-c2cccc(-c3nc(-c4ccc(C(F)(F)F)cc4)cc(C(F)(F)F)n3)c2)cn1` [Example 26, 5-{3-[4-Trifluoromethyl-6-(4-trifluoromethyl-phenyl)-pyrimidin-2-yl]-phenyl}-pyridin-2-ylamine] are 205 °C and 14 nM.
For the compound `FC(F)(F)c1ccc(-c2cc(C(F)(F)F)nc(-c3cccc(-c4cccnc4)c3)n2)cc1` [Example 33, 2-(3-Pyridin-3-yl-phenyl)-4-trifluoromethyl-6-(4-trifluoromethyl-phenyl)-pyrimidine], the melting point came to 194 °C. Further, in data set [1], the affinity corresponds to a Ki of 17 nM.
In the case of `FC(F)(F)c1cc(-c2ccc(Cl)cc2)nc(-c2cccc(-c3cccnc3)c2)n1` [Example 34, 4-(4-Chloro-phenyl)-2-(3-pyridin-3-yl-phenyl)-6-trifluoromethyl-pyrimidine], the melting point came to 162 °C. Further, the Ki in data set [1] was 47 nM.
The corresponding values for `NS(=O)(=O)c1ccc(-c2noc(-c3nc(-c4ccc(C(F)(F)F)cc4)cc(C(F)F)n3)n2)cc1` [Example 35, 4-{5-[4-Difluoromethyl-6-(4-trifluoromethyl-phenyl)-pyrimidin-2-yl]-[1,2,4]oxadiazol-3-yl}-benzenesulfonamide] are 307 °C and 31 nM.
The compound `FC(F)(F)c1ccc(-c2cc(C(F)(F)F)nc(-c3ccncc3)n2)cc1` [Example 39, 2-Pyridin-4-yl-4-trifluoromethyl-6-(4-trifluoromethyl-phenyl)-pyrimidine] registered a melting point of 153.5 °C. The compound also had a Ki in data set [1] of 39.5 nM.
The matching figures for `Cc1cc(-c2cccc(-c3nc(-c4ccc(C(F)(F)F)cc4)cc(C(F)(F)F)n3)c2)cc(C)n1` [Example 42, 2-[3-(2,6-Dimethyl-pyridin-4-yl)-phenyl]-4-trifluoromethyl-6-(4-trifluoromethyl-phenyl)-pyrimidine]: 159 °C and 140 nM.
In turn, `Nc1ccc(-c2cn(-c3cc(-c4ccc(C(F)(F)F)cc4)cc(C4CC4)n3)cn2)cn1` [Example 54, 5-{1-[6-Cyclopropyl-4-(4-trifluoromethyl-phenyl)-pyridin-2-yl]-1H-imidazol-4-yl}-pyridin-2-ylamine] had a melting point of 233 to 235 °C. Besides, the Ki in data set [1] was found to be 60 nM.
As for `Cc1cc(-c2ccc(C(F)(F)F)cc2)cc(-n2ccnc2)n1` [Example 55, 2-Imidazol-1-yl-6-methyl-4-(4-trifluoromethyl-phenyl)-pyridine], the melting point was 158 to 160 °C. In addition, the affinity in data set [1] corresponds to a Ki of 96 nM.
The matching figures for `Nc1ccc(-c2cn(-c3cc(C(F)(F)F)cc(-c4ccc(Cl)cc4)n3)cn2)cn1` [Example 56, 5-{1-[6-(4-Chloro-phenyl)-4-trifluoromethyl-pyridin-2-yl]-1H-imidazol-4-yl}-pyridin-2-ylamine]: 196 °C (dec.) and 9 nM.
On to `Nc1ccc(-c2ncn(-c3cc(C(F)(F)F)cc(-c4ccc(C(F)(F)F)cc4)n3)n2)cn1` [Example 277, 5-{1-[4-Trifluoromethyl-6-(4-trifluoromethyl-phenyl)-pyridin-2-yl]-1H-[1,2,4]triazol-3-yl}-pyridin-2-ylamine], for which affinity in data set [1] was put at a Ki of 71 nM.
Regarding `CC(C)(C)NS(=O)(=O)c1cccc(-c2cn(-c3cc(C(F)(F)F)cc(-c4ccc(C(F)(F)F)cc4)n3)cn2)c1` [Example 280, N-tert-Butyl-3-{1-[4-trifluoromethyl-6-(4-trifluoromethyl-phenyl)-pyridin-2-yl]-1H-imidazol-4-yl}-benzenesulfonamide], the affinity in data set [1], expressed as Ki, was 3 nM.
In data set [1], `Cc1cc(-c2ccc(C(F)(F)F)cc2)cc(-c2ccnc(-c3cccc([N+](=O)[O-])c3)n2)n1` [Example 322, 4-[6-Methyl-4-(4-trifluoromethyl-phenyl)-pyridin-2-yl]-2-(3-nitro-phenyl)-pyrimidine] registered a Ki of 9 nM.
In data set [1], `Cc1cc(-c2ccc(C(F)(F)F)cc2)cc(-c2ccnc(-c3cccc(NS(C)(=O)=O)c3)n2)n1` [Example 330, N-(3-{4-[6-Methyl-4-(4-trifluoromethyl-phenyl)-pyridin-2-yl]-pyrimidin-2-yl}-phenyl)-methanesulfonamide] returned a Ki of 4 nM.
On the same count and under the same terms, then `Cc1cc(-c2ccc(C(F)(F)F)cc2)cc(-c2cccc(-c3cccc(NS(=O)(=O)NC(=O)OC(C)(C)C)c3)n2)n1` [Example 334, N-(tert-Butoxycarbonyl)-N′-{3-[6′-methyl-4′-(4-trifluoromethyl-phenyl)-[2,2′]bipyridinyl-6-yl]-phenyl}-sulfamide], with 11 nM; and `Cc1cc(-c2ccc(C(F)(F)F)cc2)cc(-c2ccnc(-c3cccc(NS(N)(=O)=O)c3)n2)n1` [Example 338, N-(3-{4-[6-Methyl-4-(4-trifluoromethyl-phenyl)-pyridin-2-yl]-pyrimidin-2-yl}-phenyl)-sulfamide], with 1 nM.
On to `Cc1cc(-c2ccc(C(F)(F)F)cc2)cc(-c2cccc(-c3cccc(S(=O)(=O)O)c3)n2)n1` [Example 345, 3-[6′-Methyl-4′-(4-trifluoromethyl-phenyl)-[2,2′]bipyridinyl-6-yl]-benzenesulfonic acid], for which, in data set [1], the affinity, expressed as Ki, was 0.7 nM.
